{"source": "paper PMC5925572", "about": "“Protoplast-Esculin Assay as a New Method to Assay Plant Sucrose Transporters: Characterization of AtSUC6 and AtSUC7 Sucrose Uptake Activity in Arabidopsis Col-0 Ecotype” (Frontiers in Plant Science, 2018)", "molecules": {"B1": {"name": "AtSUC6Col-0 (Arabidopsis thaliana) (protein)", "chain": "MSDLQANKDAAAVNRQSSSSSADLNGPSPMRKMISVASIAAGIQFGWALQLSLLTPYVQLLGVPHKWSSFIWLCGPVSGLLVQPSVGYFSDRCKSRFGRRRPFIAMGALLVAVAVVLIGYAADFGHSMGDKVDEPVKMRAVVIFALGFWILDVANNTLQGPCRAFLGDLAAGDAKKTRTANAFFSFFMAVGNVLGYAAGSYTNLYKIFPFTMTKACDIYCANLKSCFFLSITLLLVVTIIALWYVEDKQWSPKADSDNEKTPFFGEIFGAFKVMKRPMWMLLIVTALNWIAWFPFLLYDTDWMGREVYGGDSKGDDKMKKLYNQGIHVGGLGLMLNSIVLGFMSLGIEGISRKMGGAKRLWGAVNIILAVCLAMTVLVTKKAEEHRRIAGPMALPTDGIRAGALTLFALLGIPLAITFSIPFALASIISSSSGAGQGLSLGVLNMTIVIPQMVVSFGVGPIDALFGGGNLPGFVVGAIAAAISSVVAFSVLP", "notes": "full-length CDS from silique cDNA; untagged in yeast CSY4000 (strain TRY1039); GFP fusion in protoplasts"}}, "key": {"AtSUC6Col-0 [1]": {"molecular_target": "T1, AtSUC6Col-0 (Arabidopsis thaliana, UniProt Q6A329)", "T1 construct": "gene SUC6; full-length CDS from silique cDNA; untagged in yeast CSY4000 (strain TRY1039); GFP fusion in protoplasts", "T1 sequence (Q6A329 1-492)": "B1 chain", "experiment": "competition of […]-sucrose uptake in yeast", "type": "cell-based", "settings": "100 μM 14C-sucrose, maltose in 10-fold excess (1 mM), pH 5.5"}, "AtSUC6Col-0 [2]": {"molecular_target": "T1, AtSUC6Col-0", "experiment": "competition of […]-sucrose uptake in yeast", "type": "cell-based", "settings": "10-fold excess, pH 5.5, weak, value in figure only"}, "AtSUC1": {"molecular_target": "T2, AtSUC1 (Arabidopsis thaliana, UniProt Q39232)", "T2 construct": "gene SUC1; full-length CDS, GFP fusion, in Arabidopsis mesophyll protoplasts", "T2 sequence (Q39232 1-513)": "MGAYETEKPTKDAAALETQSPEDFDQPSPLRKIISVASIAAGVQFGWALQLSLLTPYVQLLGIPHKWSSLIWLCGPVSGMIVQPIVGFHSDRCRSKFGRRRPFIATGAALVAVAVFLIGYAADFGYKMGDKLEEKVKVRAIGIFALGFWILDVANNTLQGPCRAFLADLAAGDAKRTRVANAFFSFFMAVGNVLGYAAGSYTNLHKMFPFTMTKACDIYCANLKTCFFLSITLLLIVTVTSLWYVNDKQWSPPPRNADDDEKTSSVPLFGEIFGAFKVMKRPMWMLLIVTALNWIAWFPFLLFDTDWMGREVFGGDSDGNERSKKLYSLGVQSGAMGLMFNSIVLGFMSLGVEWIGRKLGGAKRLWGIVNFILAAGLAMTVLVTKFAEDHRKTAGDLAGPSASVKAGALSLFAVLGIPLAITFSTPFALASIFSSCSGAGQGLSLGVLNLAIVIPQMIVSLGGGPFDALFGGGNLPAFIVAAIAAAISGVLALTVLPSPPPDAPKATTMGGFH", "experiment": "esculin fluorescence uptake into GFP-fusion expressing mesophyll protoplasts", "type": "cell-based", "settings": "1 mM esculin, W5 buffer pH 5.6"}, "AtSUC2": {"molecular_target": "T3, AtSUC2 (Arabidopsis thaliana, UniProt Q39231)", "T3 construct": "gene SUC2; full-length CDS, C-terminal GFP fusion (AtSUC2-GFP), in Arabidopsis mesophyll protoplasts; Col-0 named for the mutant construct", "T3 sequence (Q39231 1-512)": "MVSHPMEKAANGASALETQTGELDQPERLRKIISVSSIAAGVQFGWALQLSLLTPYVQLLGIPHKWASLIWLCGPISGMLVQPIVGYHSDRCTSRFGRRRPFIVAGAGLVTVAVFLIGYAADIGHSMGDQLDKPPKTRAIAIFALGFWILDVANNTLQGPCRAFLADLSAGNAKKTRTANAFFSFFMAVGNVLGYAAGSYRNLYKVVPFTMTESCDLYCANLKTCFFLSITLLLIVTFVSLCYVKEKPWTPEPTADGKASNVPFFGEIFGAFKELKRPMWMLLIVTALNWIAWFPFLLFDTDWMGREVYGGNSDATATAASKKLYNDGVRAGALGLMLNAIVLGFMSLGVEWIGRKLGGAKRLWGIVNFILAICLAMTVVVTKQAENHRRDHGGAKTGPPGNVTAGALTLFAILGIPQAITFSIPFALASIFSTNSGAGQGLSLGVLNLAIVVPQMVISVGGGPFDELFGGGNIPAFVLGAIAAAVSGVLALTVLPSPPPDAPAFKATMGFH", "experiment": "esculin fluorescence uptake into GFP-fusion expressing mesophyll protoplasts", "type": "cell-based", "settings": "1 mM esculin, W5 buffer pH 5.6"}, "AtSUC6Col-0 [3]": {"molecular_target": "T1, AtSUC6Col-0", "experiment": "competition of […]-sucrose uptake in yeast; esculin uptake into protoplasts", "type": "cell-based", "settings": "pH 5.5; competition with 100 μM 14C-sucrose; value in figure only"}, "AtSUC9": {"molecular_target": "T4, AtSUC9 (Arabidopsis thaliana, UniProt Q9FG00)", "T4 construct": "gene SUC9; full-length CDS, GFP-AtSUC9 fusion, in Arabidopsis mesophyll protoplasts", "T4 sequence (Q9FG00 1-491)": "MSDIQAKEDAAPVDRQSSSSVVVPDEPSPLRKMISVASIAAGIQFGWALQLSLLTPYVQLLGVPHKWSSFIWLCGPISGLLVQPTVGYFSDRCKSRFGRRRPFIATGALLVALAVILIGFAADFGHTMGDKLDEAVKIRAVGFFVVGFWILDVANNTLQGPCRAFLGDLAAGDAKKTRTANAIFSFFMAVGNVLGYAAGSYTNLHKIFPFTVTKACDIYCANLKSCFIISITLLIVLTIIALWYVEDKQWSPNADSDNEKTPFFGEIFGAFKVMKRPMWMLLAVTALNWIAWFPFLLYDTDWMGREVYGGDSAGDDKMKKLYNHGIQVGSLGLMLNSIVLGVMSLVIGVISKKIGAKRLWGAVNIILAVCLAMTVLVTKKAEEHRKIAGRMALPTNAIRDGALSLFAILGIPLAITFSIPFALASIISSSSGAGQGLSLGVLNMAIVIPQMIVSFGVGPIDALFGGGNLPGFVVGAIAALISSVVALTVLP", "experiment": "esculin fluorescence uptake into GFP-fusion expressing mesophyll protoplasts", "type": "cell-based", "settings": "1 mM esculin, W5 buffer pH 5.6"}, "AtSUC5": {"molecular_target": "T5, AtSUC5 (Arabidopsis thaliana, UniProt Q9C8X2)", "T5 construct": "gene SUC5; full-length CDS, GFP fusion, in Arabidopsis mesophyll protoplasts; Col-0 named for the mutant construct", "T5 sequence (Q9C8X2 1-512)": "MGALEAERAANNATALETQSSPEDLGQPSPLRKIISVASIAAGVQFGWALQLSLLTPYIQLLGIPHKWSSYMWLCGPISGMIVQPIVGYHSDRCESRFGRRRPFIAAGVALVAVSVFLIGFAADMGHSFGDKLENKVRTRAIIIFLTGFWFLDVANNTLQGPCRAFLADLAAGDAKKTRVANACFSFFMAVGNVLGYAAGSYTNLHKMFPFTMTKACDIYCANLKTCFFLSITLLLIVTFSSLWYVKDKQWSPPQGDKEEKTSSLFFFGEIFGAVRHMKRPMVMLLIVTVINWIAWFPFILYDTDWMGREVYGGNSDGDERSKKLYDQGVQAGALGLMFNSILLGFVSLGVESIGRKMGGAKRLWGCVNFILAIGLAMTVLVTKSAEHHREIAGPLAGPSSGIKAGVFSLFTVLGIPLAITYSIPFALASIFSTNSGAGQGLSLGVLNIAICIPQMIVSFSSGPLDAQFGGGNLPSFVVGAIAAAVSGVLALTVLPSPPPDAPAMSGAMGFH", "experiment": "esculin fluorescence uptake into GFP-fusion expressing mesophyll protoplasts", "type": "cell-based", "settings": "1 mM esculin, W5 buffer pH 5.6"}, "AtSUC3": {"molecular_target": "T6, AtSUC3 (Arabidopsis thaliana, UniProt O80605)", "T6 construct": "gene SUC3; full-length CDS, GFP-AtSUC3 fusion, in Arabidopsis mesophyll protoplasts", "T6 sequence (O80605 1-594)": "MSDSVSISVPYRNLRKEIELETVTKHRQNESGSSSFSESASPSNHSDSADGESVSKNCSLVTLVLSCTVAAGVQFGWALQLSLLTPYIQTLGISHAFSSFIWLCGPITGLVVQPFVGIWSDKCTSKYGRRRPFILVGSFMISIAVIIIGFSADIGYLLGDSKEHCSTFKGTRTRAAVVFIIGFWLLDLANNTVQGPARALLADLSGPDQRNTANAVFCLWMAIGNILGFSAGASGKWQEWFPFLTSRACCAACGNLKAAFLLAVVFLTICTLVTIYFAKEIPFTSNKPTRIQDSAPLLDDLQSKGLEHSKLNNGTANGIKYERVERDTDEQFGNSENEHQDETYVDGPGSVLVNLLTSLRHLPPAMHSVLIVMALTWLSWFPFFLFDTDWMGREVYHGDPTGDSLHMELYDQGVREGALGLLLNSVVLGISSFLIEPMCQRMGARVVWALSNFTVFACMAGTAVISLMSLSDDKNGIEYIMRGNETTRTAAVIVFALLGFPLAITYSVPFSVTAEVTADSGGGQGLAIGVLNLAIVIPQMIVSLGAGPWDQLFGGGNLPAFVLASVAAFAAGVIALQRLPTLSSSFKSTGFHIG", "experiment": "esculin fluorescence uptake into GFP-fusion expressing mesophyll protoplasts", "type": "cell-based", "settings": "1 mM esculin, W5 buffer pH 5.6"}, "AtSUC8": {"molecular_target": "T7, AtSUC8 (Arabidopsis thaliana, UniProt Q9ZVK6)", "T7 construct": "gene SUC8; full-length CDS, GFP fusion, in Arabidopsis mesophyll protoplasts", "T7 sequence (Q9ZVK6 1-492)": "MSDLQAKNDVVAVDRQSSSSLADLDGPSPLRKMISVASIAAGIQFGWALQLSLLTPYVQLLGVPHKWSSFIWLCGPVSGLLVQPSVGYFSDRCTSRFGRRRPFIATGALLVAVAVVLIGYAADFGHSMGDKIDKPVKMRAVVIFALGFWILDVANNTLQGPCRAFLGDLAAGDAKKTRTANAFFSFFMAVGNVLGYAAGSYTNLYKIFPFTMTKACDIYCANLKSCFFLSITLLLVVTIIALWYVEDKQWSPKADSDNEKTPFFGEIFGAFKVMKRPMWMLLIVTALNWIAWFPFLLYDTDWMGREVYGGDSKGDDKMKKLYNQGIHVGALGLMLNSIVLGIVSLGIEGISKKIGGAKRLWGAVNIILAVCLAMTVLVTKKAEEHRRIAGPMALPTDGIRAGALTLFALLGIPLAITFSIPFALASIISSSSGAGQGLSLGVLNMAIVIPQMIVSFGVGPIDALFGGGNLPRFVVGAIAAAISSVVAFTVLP", "experiment": "esculin fluorescence uptake into GFP-fusion expressing mesophyll protoplasts", "type": "cell-based", "settings": "1 mM esculin, W5 buffer pH 5.6"}, "[4]": {"substrate": "OC[C@H]1O[C@@](CO)(O[C@H]2O[C@H](CO)[C@@H](O)[C@H](O)[C@H]2O)[C@@H](O)[C@@H]1O", "experiment": "cells, lysate or membranes", "type": "cell-based, Arabidopsis thaliana", "settings": "external pH 5.5, H+ symport, labelled compound"}}, "data": [{"molecule": "OC[C@H]1O[C@H](O[C@H]2[C@H](O)[C@@H](O)C(O)O[C@@H]2CO)[C@H](O)[C@@H](O)[C@@H]1O", "note": "(stereo partly shown) [maltose]", "values": [{"measurement": "% residual 14C-sucrose uptake in 10-fold excess", "setting": "AtSUC6Col-0 [1]", "value": 32, "unit": "%"}]}, {"molecule": "OC[C@H]1O[C@H](OC[C@H]2O[C@H](O[C@]3(CO)O[C@H](CO)[C@@H](O)[C@@H]3O)[C@H](O)[C@@H](O)[C@@H]2O)[C@H](O)[C@@H](O)[C@H]1O", "note": "[raffinose]", "values": [{"measurement": "competition of 14C-sucrose uptake in yeast", "setting": "AtSUC6Col-0 [2]", "value": "The trisaccharide raffinose slightly interfered with sucrose uptake"}]}, {"molecule": "O=c1ccc2cc(O[C@@H]3O[C@H](CO)[C@@H](O)[C@H](O)[C@H]3O)c(O)cc2o1", "note": "[esculin]", "values": [{"measurement": "esculin fluorescence uptake into GFP-fusion expressing mesophyll protoplasts", "setting": "AtSUC1", "value": "AtSUC1, AtSUC5, AtSUC6Col-0, AtSUC8, or AtSUC9 enabled the cells to accumulate esculin"}, {"measurement": "esculin fluorescence uptake into GFP-fusion expressing mesophyll protoplasts", "setting": "AtSUC2", "value": "all protoplasts labeled by AtSUC2-GFP had taken up esculin"}, {"measurement": "competition of 14C-sucrose uptake in yeast; esculin uptake into protoplasts", "setting": "AtSUC6Col-0 [3]", "value": "addition of esculin greatly interfered with sucrose uptake (Figure 4E)"}, {"measurement": "esculin fluorescence uptake into GFP-fusion expressing mesophyll protoplasts", "setting": "AtSUC9", "value": "AtSUC1, AtSUC5, AtSUC6Col-0, AtSUC8, or AtSUC9 enabled the cells to accumulate esculin"}, {"measurement": "esculin fluorescence uptake into GFP-fusion expressing mesophyll protoplasts", "setting": "AtSUC5", "value": "AtSUC1, AtSUC5, AtSUC6Col-0, AtSUC8, or AtSUC9 enabled the cells to accumulate esculin"}, {"measurement": "esculin fluorescence uptake into GFP-fusion expressing mesophyll protoplasts", "setting": "AtSUC3", "value": "Protoplasts with GFP-AtSUC3 were also able to accumulate esculin"}, {"measurement": "esculin fluorescence uptake into GFP-fusion expressing mesophyll protoplasts", "setting": "AtSUC8", "value": "AtSUC1, AtSUC5, AtSUC6Col-0, AtSUC8, or AtSUC9 enabled the cells to accumulate esculin"}]}, {"molecule": "B1", "values": [{"measurement": "Km", "setting": "[4]", "value": "81.2 ± 2.7", "unit": "µM"}]}]}
